Test results as given in the supplement of paper PMC10307832.

How the values were obtained:
Experiment in all cases: relative viability (nuclei count vs DMSO), 5 days (fraction); higher = more cells survive
[1] = compound: C=CCc1cccc(/C=N/NC(=O)CN2CCN(Cc3ccccc3)CC2)c1O [PAC-1] + N=C(N)NC(=N)NCCc1ccccc1 [Phenformin] (partner 250 µM)
How it was run: (§1)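 Lung cancer cell lines in 1536-well plates got either a single drug or a fixed anchor-drug dose together with five library-drug doses (not always all listed) in √10 steps, by pin tool, on the day after seeding. Nuclei were counted after 5 days, and relative viability is the treated-to-vehicle ratio of nuclei counts. Values are medians of duplicate plates.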

[2] = compound: C=CC(=O)Nc1cc(-n2c(=O)ccc3cnc4ccc(-c5ccc(NS(C)(=O)=O)cc5)cc4c32)ccc1C [BMX-IN-1] + CC(C)C[C@H](NC(=O)[C@H](Cc1ccccc1)NC(=O)c1cnccn1)B(O)O [Bortezomib] (partner 0.002 µM)
How it was run: as §1

[3] = compound: C=CCc1cccc(/C=N/NC(=O)CN2CCN(Cc3ccccc3)CC2)c1O [PAC-1] + COc1cccc2cc(-c3nc([C@H]4CC[C@H](C(=O)O)CC4)n4ncnc(N)c34)[nH]c12 [OSI-027] (partner 0.5 µM)
How it was run: as §1

[4] = compound: C=CC(=O)Nc1cc(-n2c(=O)ccc3cnc4ccc(-c5ccc(NS(C)(=O)=O)cc5)cc4c32)ccc1C [BMX-IN-1] + NC(=O)Nc1cc(-c2cccc(F)c2)sc1C(=O)N[C@H]1CCCNC1 [AZD7762] (partner 0.2 µM)
How it was run: as §1

[5] = compound: C=CCc1cccc(/C=N/NC(=O)CN2CCN(Cc3ccccc3)CC2)c1O [PAC-1] + C[C@@H](Oc1cc(-c2cnn(C3CCNCC3)c2)cnc1N)c1c(Cl)ccc(F)c1Cl [Crizotinib] (partner 1 µM)
How it was run: as §1

Row | Cell Line | relative viability ([1]; first compound 0.02 µM) | relative viability ([1]; first compound 0.06325 µM) | relative viability ([1]; first compound 0.2 µM) | relative viability ([1]; first compound 2 µM) | relative viability ([2]; first compound 0.02 µM) | relative viability ([2]; first compound 0.2 µM) | relative viability ([2]; first compound 0.6325 µM) | relative viability ([2]; first compound 2 µM) | relative viability ([3]; first compound 0.02 µM) | relative viability ([3]; first compound 0.06325 µM) | relative viability ([3]; first compound 0.2 µM) | relative viability ([3]; first compound 2 µM) | relative viability ([4]; first compound 0.02 µM) | relative viability ([4]; first compound 0.2 µM) | relative viability ([4]; first compound 0.6325 µM) | relative viability ([4]; first compound 2 µM) | relative viability ([5]; first compound 0.02 µM) | relative viability ([5]; first compound 0.06325 µM) | relative viability ([5]; first compound 0.2 µM) | relative viability ([5]; first compound 2 µM)
1 | NCI-H647 | 0.609 | 0.504 | 0.431 | 0.571 | 1.15 | 1.42 | 1.24 | 1.01 | 0.684 | 0.762 | 0.594 | 0.617 | 0.492 | 0.583 | 0.71 | 0.62 | 1.06 | 1.12 | 1.03 | 0.812
2 | NCI-H650 | 0.469 | 0.452 | 0.403 | 0.444 | 1.06 | 0.762 | 0.783 | 0.749 | 0.47 | 0.515 | 0.468 | 0.535 | 0.978 | 1.29 | 0.921 | 0.904 | 0.591 | 0.653 | 0.825 | 0.72
3 | NCI-H727 | 0.463 | 0.682 | 0.565 | 0.52 | 1 | 0.869 | 1.05 | 0.939 | 0.641 | 0.689 | 0.619 | 0.622 | 0.574 | 0.585 | 0.635 | 0.541 | 0.847 | 0.841 | 0.898 | 0.821
4 | NCI-H838 | 0.509 | 0.585 | 0.46 | 0.572 | 0.724 | 0.803 | 0.95 | 0.777 | 0.359 | 0.386 | 0.373 | 0.398 | 1.06 | 1.01 | 0.956 | 1.01 | 0.776 | 0.758 | 0.801 | 0.92
5 | NCI-H1355 | 0.461 | 0.517 | 0.431 | 0.438 | 1.26 | 1.21 | 1.4 | 1.22 | 0.403 | 0.436 | 0.404 | 0.438 | 0.872 | 0.85 | 0.838 | 0.755 | 1.08 | 1.08 | 1.17 | 1.03
6 | NCI-H1437 | 0.302 | 0.275 | 0.264 | 0.339 | 0.567 | 0.472 | 0.586 | 0.456 | 0.893 | 0.867 | 0.82 | 0.762 | 1.26 | 1.26 | 1.11 | 1.11 | 0.883 | 0.913 | 0.85 | 0.68
7 | NCI-H1651 | 0.364 | 0.341 | 0.29 | 0.333 | 0.959 | 1.06 | 0.921 | 0.951 | 0.766 | 0.744 | 0.64 | 0.612 | 0.557 | 0.503 | 0.527 | 0.422 | 0.815 | 0.898 | 0.874 | 0.755
8 | NCI-H1666 | 0.589 | 0.559 | 0.695 | 0.549 | 0.799 | 0.821 | 0.823 | 0.728 | 0.848 | 0.866 | 0.777 | 0.849 | 0.804 | 0.886 | 0.901 | 0.871 | 0.981 | 0.897 | 1.05 | 1
9 | NCI-H1734 | 0.366 | 0.36 | 0.373 | 0.388 | 1.05 | 1.24 | 0.964 | 1.17 | 0.607 | 0.589 | 0.522 | 0.642 | 0.683 | 0.623 | 0.542 | 0.669 | 0.698 | 0.627 | 0.659 | 0.766
10 | NCI-H1755 | 0.615 | 0.614 | 0.595 | 0.606 | 0.971 | 1 | 1 | 0.987 | 0.717 | 0.722 | 0.601 | 0.72 | 0.543 | 0.491 | 0.453 | 0.466 | 0.938 | 0.867 | 0.847 | 0.805
11 | NCI-H1792 | 0.298 | 0.257 | 0.293 | 0.24 | 1.25 | 1.4 | 0.912 | 0.956 | 0.731 | 0.715 | 0.684 | 0.733 | 0.896 | 0.79 | 0.866 | 0.885 | 0.988 | 1.04 | 1.03 | 0.909
12 | NCI-H1915 | 0.364 | 0.358 | 0.345 | 0.365 | 1.31 | 1.14 | 1.08 | 0.994 | 0.603 | 0.621 | 0.592 | 0.586 | 0.774 | 0.786 | 0.806 | 0.675 | 0.892 | 0.899 | 0.85 | 0.857
13 | NCI-H1975 | 0.404 | 0.389 | 0.401 | 0.447 | 0.356 | 0.338 | 0.45 | 0.433 | 0.826 | 0.62 | 0.704 | 0.842 | 0.797 | 0.742 | 0.895 | 0.673 | 0.919 | 0.916 | 0.944 | 1
14 | NCI-H1993 | 0.42 | 0.513 | 0.595 | 0.498 | 1.1 | 1.11 | – | 0.959 | 0.485 | 0.576 | 0.634 | 0.545 | 0.907 | 0.926 | 0.706 | 0.724 | 0.811 | 0.831 | 0.626 | 0.743
15 | NCI-H2085 | 0.747 | 0.757 | 0.723 | 0.815 | 1.14 | 0.998 | 1.2 | 1.16 | 0.755 | 0.713 | 0.66 | 0.754 | 1.08 | 1.07 | 0.986 | 0.996 | 0.742 | 0.899 | 0.789 | 0.947
